Data published in patent US8198469B2, “Crystalline forms of tigecycline and processes for preparation thereof” (Teva Pharmaceutical Industries Ltd., priority 2006, dated 2012).
Each block holds one molecule with its values, some of them ahead of it.

Experiments:
Type in all cases: physicochemical
[1] = Vacuum drying of the solid, form re-analyzed by XRD; conditions: for Solid form after vacuum drying: dried under vacuum, temperature and time not stated; for Solid form by XRD after drying: overnight at 40° C. under vacuum
Experimental: (§1) X-Ray powder diffraction data were obtained by using methods known in the art, using a SCINTAG powder X-Ray diffractometer model X'TRA equipped with a solid-state detector. A Copper radiation of 1.5418 Å was used. A round aluminum sample holder with zero background was used. The scanning parameters included: range: 20 to 40° 2θ; scan mode: continuous scan; step size: 0.05°. The rate for Form XX [FIG. 16] was 3°/min using spin mode while the remaining crystalline forms were 5°/min using spin mode. All peak positions are within ±0.2 degrees two theta.
Tigecycline sample was dissolved in 20 volumes of hot iso-propanol. The solution thus obtained was allowed to cool at ambient temperature and then further cooled at 0-5° C. for about half an hour. The resulted suspension was filtered and the solid air-dried on the filter to afford Tigecycline of Form XII. The material was further dried overnight at 40° C. under vacuum without affecting the polymorphs, i.e. the vacuum dried Tigecycline was still identified as Form XII. The sizes of the Tigecycline Form XII crystals were less than 300 μm.
Tigecycline sample was dissolved in 20 volumes of n-propanol or 40 volumes of hot ethanol. The solution thus obtained was allowed to cool at ambient temperature and then further cooled at 0-5° C. for about half an hour. The resulted suspension was filtered and the solid air-dried on the filter to afford Tigecycline Form XIII. The material was further dried overnight under vacuum at 40° C. without affecting the polymorphs, i.e. the vacuum dried Tigecycline was still identified as Form XIII. The sizes of the Tigecycline Form XIII crystals were less than 300 μm.
2 grams of Tigecycline was dissolved in 440 mL of DDW and pH of the mixture was adjusted at 7.38 and 60 mL of THF were then added. The resulted solution was extracted 6 times with 60 mL portions of dichloromethane while pH is carefully controlled at 7.2-7.4. The combined organic extract was then dried over sodium sulfate and concentrated to about 10 mL to afford a suspension of Tigecycline. The solid was filtered and washed with heptane. Analysis of the material indicated Form XVII Tigecycline.
2 grams of Tigecycline was dissolved in 440 mL of DDW and pH of the mixture was adjusted at 7.33 and 60 mL of THF were then added. The resulted solution was extracted 6 times with 60 mL portions of dichloromethane while the pH is carefully controlled at 7.2-7.4. The combined organic extract was then dried over sodium sulfate, filtered and the solid was washed with 50 mL of dichloromethane into the initial filtrate. The combined filtrate was concentrated to 30-40 mL and the concentrated was stirred for about half an hour at 0-5° C. A precipitation occurred upon the cooling and the solid was collected and vacuum dried. Analysis of the material before and after the drying indicated Form XVIII of Tigecycline in both cases.
A solution of Tigecycline in dichloromethane was provided between 5 and 10 g/L, and dried over sodium sulfate. Toluene was added to the solution so that the total volume increased to about 1.15 of the original volume. The resulted solution was then partially evaporated so that the volume of the residual mixture was similar to that of the toluene added. The resulted suspension was filtered and the solid thus obtained was dried under vacuum. Analysis of the material before and after the drying indicated Form XIX of Tigecycline in both cases.
A solution of Tigecycline in dichloromethane was provided and dried over sodium sulfate. Di-n-butyl ether was added to the solution so that the total volume increased to about 1.15 of the original volume. The resulting solution was then partially evaporated so that the volume of the residual mixture was similar to that of the di-n-butyl ether added. The resulted suspension was filtered and the cake washed with di-n-butyl ether. Tigecycline thus obtained was identified as Form VIII in both wet and vacuum dried samples. […]

[2] = Polymorphic transition due to heating in oven, solid analyzed by XRD
Experimental: as §1
Tigecycline Form X was placed in oven at a temperature of between about 50-150° C. for about 0.5-2 hr (for example: 60 for 2 hr, 140° C. for 1 hr).
Tigecycline Form XI was placed in oven at a temperature of between about 50-80° C. for about 1-2 hr (for example: 60 for 2 hr).
Tigecycline Form XVII was placed in oven at a temperature of between about 50-70° C. for about 1-2 hr (for example: 60 for 2 hr).
Tigecycline Form XVII was placed in oven at a temperature of between about 90-110° C. for about 0.5-1 hr (for example: 100 for 0.5 hr).
Tigecycline Form XVIII was placed in oven at a temperature of between about 120-150° C. for about 0.5-1 hr (for example: 140 for 1 hr).
Tigecycline Form XXIV was placed in oven at a temperature of between about 110-140° C. for about 0.5-1 hr (for example: 120 for 0.5 hr, 140° C. for 1 hr).

[3] = Exposure to 0% or 100% relative humidity for 7 days at room temperature, crystal form monitored by XRD
Experimental: as §1, with “theta. […]” for “theta.”
Form I prepared from ethyl acetate (about 80 mg) as described in U.S. Application Ser. No. 60/796,800 was exposed to either 0% or 100% relative humidity for 7 days at room temperature. After the exposure the crystal form was monitored by XRD. […]

[4] = Pressing by a laboratory press, solid analyzed by XRD; conditions: pressure of about 1-2 tons for about 1-3 min (e.g. 2 tons for 1 min)
Experimental: as §1
Tigecycline Form XI was pressed by a laboratory press by pressure of about 1-2 tons for about 1-3 min (for example: 2 tons for 1 min).
Tigecycline Form XVII was pressed by a laboratory press by pressure of about 1-2 tons for about 1-3 min (for example: 2 tons for 1 min).

[5] = Strong grinding by mortar and pestle, solid analyzed by XRD; conditions: about 0.5-1 min
Experimental: as §1
Tigecycline Form XVII was strongly ground by mortal and pestle for about 0.5-1 min.

[6] = 120-150° C. for about 0.5-1 hr (e.g. 140° C. for 1 hr)

SMILES: CN(C)c1cc(NC(=O)CNC(C)(C)C)c(O)c2c1C[C@H]1C[C@H]3[C@H](N(C)C)C(O)=C(C(N)=O)C(=O)[C@@]3(O)C(O)=C1C2=O [Form XIX, Tigecycline]
Solid form after vacuum drying [1]: Form XIX

SMILES: CN(C)c1cc(NC(=O)CNC(C)(C)C)c(O)c2c1C[C@H]1C[C@H]3[C@H](N(C)C)C(O)=C(C(N)=O)C(=O)[C@@]3(O)C(O)=C1C2=O [Form XXIV, Tigecycline]
Solid form by XRD after heating in oven ([2]; 110-140° C. for about 0.5-1 hr (e.g. 120 for 0.5 hr, 140° C. for 1 hr)): amorphous form

SMILES: CN(C)c1cc(NC(=O)CNC(C)(C)C)c(O)c2c1C[C@H]1C[C@H]3[C@H](N(C)C)C(O)=C(C(N)=O)C(=O)[C@@]3(O)C(O)=C1C2=O [Form XI, Tigecycline]
Solid form by XRD after heating in oven ([2]; 50-80° C. for about 1-2 hr (e.g. 60 for 2 hr)): mixture of Form XI and Form VI
Crystal form by XRD after exposure to relative humidity ([3]; 0% RH): mixture of Form XI and Form VI
Solid form by XRD after pressing [4]: mixture of Form XI and Form VI

SMILES: CN(C)c1cc(NC(=O)CNC(C)(C)C)c(O)c2c1C[C@H]1C[C@H]3[C@H](N(C)C)C(O)=C(C(N)=O)C(=O)[C@@]3(O)C(O)=C1C2=O [Form IX, Tigecycline]
Crystal form by XRD after exposure to relative humidity ([3]; 100% RH): Form XXII

SMILES: CN(C)c1cc(NC(=O)CNC(C)(C)C)c(O)c2c1C[C@H]1C[C@H]3[C@H](N(C)C)C(O)=C(C(N)=O)C(=O)[C@@]3(O)C(O)=C1C2=O [Form XVIII, Tigecycline]
Solid form by XRD after heating in oven [2, 6]: amorphous form
Solid form after vacuum drying [1]: Form XVIII

SMILES: CN(C)c1cc(NC(=O)CNC(C)(C)C)c(O)c2c1C[C@H]1C[C@H]3[C@H](N(C)C)C(O)=C(C(N)=O)C(=O)[C@@]3(O)C(O)=C1C2=O [Form XIII, Tigecycline]
Solid form by XRD after drying [1]: Form XIII

Other lines, results leading:

Solid form by XRD after heating in oven ([2]; 50-70° C. for about 1-2 hr (e.g. 60 for 2 hr)): mixture of Form XVII and Form VI
Solid form by XRD after heating in oven ([2]; 90-110° C. for about 0.5-1 hr (e.g. 100 for 0.5 hr)): Form VI
Solid form by XRD after pressing [4]: mixture of Form XVII and Form VI
Solid form by XRD after strong grinding [5]: mixture of Form XVII and Form VI
Solid form after vacuum drying [1]: Form XVII
SMILES: CN(C)c1cc(NC(=O)CNC(C)(C)C)c(O)c2c1C[C@H]1C[C@H]3[C@H](N(C)C)C(O)=C(C(N)=O)C(=O)[C@@]3(O)C(O)=C1C2=O [Form XVII, Tigecycline]

Solid form by XRD after drying [1]: amorphous
SMILES: CN(C)c1cc(NC(=O)CNC(C)(C)C)c(O)c2c1C[C@H]1C[C@H]3[C@H](N(C)C)C(O)=C(C(N)=O)C(=O)[C@@]3(O)C(O)=C1C2=O [amorphous Tigecycline, Tigecycline]

Crystal form by XRD after exposure to relative humidity ([3]; 0% RH): Form XXIII
SMILES: CN(C)c1cc(NC(=O)CNC(C)(C)C)c(O)c2c1C[C@H]1C[C@H]3[C@H](N(C)C)C(O)=C(C(N)=O)C(=O)[C@@]3(O)C(O)=C1C2=O [Form VII, Tigecycline]

Solid form after vacuum drying [1]: Form VIII
SMILES: CN(C)c1cc(NC(=O)CNC(C)(C)C)c(O)c2c1C[C@H]1C[C@H]3[C@H](N(C)C)C(O)=C(C(N)=O)C(=O)[C@@]3(O)C(O)=C1C2=O [Form VIII, Tigecycline]

Solid form by XRD after heating in oven [2, 6]: amorphous form
Crystal form by XRD after exposure to relative humidity ([3]; 0% RH): New form XXV
Crystal form by XRD after exposure to relative humidity ([3]; 100% RH): Amorphous
SMILES: CN(C)c1cc(NC(=O)CNC(C)(C)C)c(O)c2c1C[C@H]1C[C@H]3[C@H](N(C)C)C(O)=C(C(N)=O)C(=O)[C@@]3(O)C(O)=C1C2=O [Form I, Tigecycline]

Solid form by XRD after drying [1]: Form XII
SMILES: CN(C)c1cc(NC(=O)CNC(C)(C)C)c(O)c2c1C[C@H]1C[C@H]3[C@H](N(C)C)C(O)=C(C(N)=O)C(=O)[C@@]3(O)C(O)=C1C2=O [Form XII, Tigecycline]

Solid form by XRD after heating in oven ([2]; 50-150° C. for about 0.5-2 hr (e.g. 60 for 2 hr, 140° C. for 1 hr)): amorphous form
SMILES: CN(C)c1cc(NC(=O)CNC(C)(C)C)c(O)c2c1C[C@H]1C[C@H]3[C@H](N(C)C)C(O)=C(C(N)=O)C(=O)[C@@]3(O)C(O)=C1C2=O [Form X, Tigecycline]
